In PubChem BioAssay AID651650 (Sanford-Burnham Center for Chemical Genomics, 2012):
Calls of active or inactive are those of the source.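 The calls were made as follows: active = mean IC50 below 20 µM in each of the two panels, so potent in both; inactive = the rest.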

Target: Neuropilin-1 (Homo sapiens) (UniProt O14786)
Assay: NRP-1 b1b2 CendR peptide binding inhibitors, dose response, biochemical, FP and AlphaScreen panel (AID 651650)
Details: NRP-1 b1b2 / RPARPAR peptide binding, FP or AlphaScreen
[1] = AlphaScreen, run 1, individual panel run IC50
[2] = FP, run 1, individual panel run IC50
[3] = FP, run 2, individual panel run IC50

Chain of Neuropilin-1 (Homo sapiens) (O14786 whole entry, looked up): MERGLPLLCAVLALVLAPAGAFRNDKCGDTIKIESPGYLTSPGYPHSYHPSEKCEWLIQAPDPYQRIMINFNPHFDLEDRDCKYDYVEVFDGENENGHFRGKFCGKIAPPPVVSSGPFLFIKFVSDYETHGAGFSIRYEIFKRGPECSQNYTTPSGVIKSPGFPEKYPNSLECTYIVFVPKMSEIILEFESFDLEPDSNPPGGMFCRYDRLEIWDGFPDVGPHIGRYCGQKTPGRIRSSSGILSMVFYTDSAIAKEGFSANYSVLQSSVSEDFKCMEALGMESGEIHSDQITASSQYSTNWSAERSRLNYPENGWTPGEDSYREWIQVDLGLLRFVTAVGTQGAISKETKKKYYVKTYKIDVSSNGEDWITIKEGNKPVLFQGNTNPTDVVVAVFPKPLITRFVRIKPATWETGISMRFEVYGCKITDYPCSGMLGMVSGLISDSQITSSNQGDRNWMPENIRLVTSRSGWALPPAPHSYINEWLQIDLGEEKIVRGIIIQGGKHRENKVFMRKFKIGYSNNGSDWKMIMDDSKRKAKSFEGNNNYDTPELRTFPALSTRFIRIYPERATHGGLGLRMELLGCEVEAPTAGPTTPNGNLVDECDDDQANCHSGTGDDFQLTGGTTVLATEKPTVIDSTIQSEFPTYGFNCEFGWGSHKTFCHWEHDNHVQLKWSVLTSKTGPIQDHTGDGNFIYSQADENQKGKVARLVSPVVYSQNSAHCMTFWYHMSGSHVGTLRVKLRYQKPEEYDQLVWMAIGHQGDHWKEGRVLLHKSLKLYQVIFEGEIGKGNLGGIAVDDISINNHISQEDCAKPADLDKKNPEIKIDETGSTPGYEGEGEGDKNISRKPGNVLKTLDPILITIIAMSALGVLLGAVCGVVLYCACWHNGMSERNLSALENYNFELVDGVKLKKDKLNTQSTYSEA

COc1ccccc1COc1ccc2c(C)c(CC(=O)O)c(=O)oc2c1C
IC50 (AlphaScreen, mean of runs): > 100 µM (inactive) | IC50 [1]: > 100 µM | IC50 (FP, mean of runs): > 95 µM (inactive) | IC50 [2]: > 95 µM | IC50 [3]: > 95 µM

Cc1ccc(C(=O)Nc2ccccc2-c2ccccc2)cc1S(=O)(=O)Nc1ccccc1
IC50 (AlphaScreen, mean of runs): > 100 µM (inactive) | IC50 [1]: > 100 µM | IC50 (FP, mean of runs): > 95 µM (inactive) | IC50 [2]: > 95 µM | IC50 [3]: > 95 µM

CCOC(=O)c1ccc(N2CCN(C(=O)c3ccccc3)CC2)c(NC(=O)c2ccco2)c1
IC50 (AlphaScreen, mean of runs): > 100 µM (inactive) | IC50 [1]: > 100 µM | IC50 (FP, mean of runs): > 95 µM (inactive) | IC50 [2]: > 95 µM | IC50 [3]: > 95 µM

Cc1ccc(NC(=O)c2ccc3c(c2)OCCO3)cc1S(=O)(=O)Nc1cccc(Cl)c1
IC50 (AlphaScreen, mean of runs): > 100 µM (inactive) | IC50 [1]: > 100 µM | IC50 (FP, mean of runs): > 95 µM (inactive) | IC50 [2]: > 95 µM | IC50 [3]: > 95 µM

COc1ccc(C(C(=O)NC(C)(C)C)N(C(=O)CCC(=O)Nc2cc(C)on2)c2c(C)cccc2C)cc1 (stereo not given)
IC50 (AlphaScreen, mean of runs): > 100 µM (inactive) | IC50 [1]: > 100 µM | IC50 (FP, mean of runs): > 95 µM (inactive) | IC50 [2]: > 95 µM | IC50 [3]: > 95 µM

CC(=O)Oc1cc2c(c3ccccc13)CCC2=O
IC50 (AlphaScreen, mean of runs): > 100 µM (inactive) | IC50 [1]: > 100 µM | IC50 (FP, mean of runs): > 95 µM (inactive) | IC50 [2]: > 95 µM | IC50 [3]: > 95 µM

CN(C(=O)COC(=O)c1nc(-c2ccccc2)n(-c2ccccc2)n1)C1CCS(=O)(=O)C1 (stereo not given)
IC50 (AlphaScreen, mean of runs): > 100 µM (inactive) | IC50 [1]: > 100 µM | IC50 (FP, mean of runs): > 95 µM (inactive) | IC50 [2]: > 95 µM | IC50 [3]: > 95 µM

O=C(NCc1ccccc1)c1ccc(N2CCC3(CC2)CC(c2ccc(Cl)cc2)=NO3)c([N+](=O)[O-])c1
IC50 (AlphaScreen, mean of runs): inactive | IC50 [1]: 22 µM | IC50 (FP, mean of runs): > 95 µM (inactive) | IC50 [2]: > 95 µM | IC50 [3]: > 95 µM

COc1ccc(Cl)cc1NC(=O)C(C)N1CCc2ccccc21 (stereo not given)
IC50 (AlphaScreen, mean of runs): inactive | IC50 [1]: 45.6 µM | IC50 (FP, mean of runs): inactive | IC50 [2]: 50 µM | IC50 [3]: 30.3 µM

CC1(C)CN=C(Nc2ccc(F)c(Cl)c2)S1
IC50 (AlphaScreen, mean of runs): 18.9 µM | IC50 [1]: 18.9 µM | IC50 (FP, mean of runs): > 95 µM (inactive) | IC50 [2]: > 95 µM | IC50 [3]: > 95 µM

COc1ccc(CCNC(=O)c2c(O)c3cccc4c3n(c2=O)CC4)cc1OC
IC50 (AlphaScreen, mean of runs): > 100 µM (inactive) | IC50 [1]: > 100 µM | IC50 (FP, mean of runs): > 95 µM (inactive) | IC50 [2]: > 95 µM | IC50 [3]: > 95 µM

Cc1ccccc1-c1cnc(C(O)c2ccc(F)c(F)c2)[nH]1 (stereo not given)
IC50 (AlphaScreen, mean of runs): > 100 µM (inactive) | IC50 [1]: > 100 µM | IC50 (FP, mean of runs): > 95 µM (inactive) | IC50 [2]: > 95 µM | IC50 [3]: > 95 µM

O=S(=O)(c1ccccc1)c1nc(-c2ccc(F)cc2)oc1N1CCOCC1
IC50 (AlphaScreen, mean of runs): > 100 µM (inactive) | IC50 [1]: > 100 µM | IC50 (FP, mean of runs): > 95 µM (inactive) | IC50 [2]: > 95 µM | IC50 [3]: > 95 µM

O=C(Cn1cccc1C(=O)c1ccccc1)NCCC1=CCCCC1
IC50 (AlphaScreen, mean of runs): 7.12 µM | IC50 [1]: 7.12 µM | IC50 (FP, mean of runs): > 95 µM (inactive) | IC50 [2]: > 95 µM | IC50 [3]: > 95 µM

CCOc1ccc(-n2c(Cc3cc(=O)[nH]c(=O)[nH]3)nnc2SC(C)C)cc1
IC50 (AlphaScreen, mean of runs): > 100 µM (inactive) | IC50 [1]: > 100 µM | IC50 (FP, mean of runs): > 95 µM (inactive) | IC50 [2]: > 95 µM | IC50 [3]: > 95 µM

COc1ccc([C@H]2/C=C\CN(C(=O)C3CC3)[C@@H](C)C(=O)N2Cc2ccc(F)cc2)cc1
IC50 (AlphaScreen, mean of runs): > 100 µM (inactive) | IC50 [1]: > 100 µM | IC50 (FP, mean of runs): > 95 µM (inactive) | IC50 [2]: > 95 µM | IC50 [3]: > 95 µM

O=C(Nc1ccc(N2CCOCC2)cc1)c1cc(-n2cnnc2)ccc1Cl
IC50 (AlphaScreen, mean of runs): > 100 µM (inactive) | IC50 [1]: > 100 µM | IC50 (FP, mean of runs): > 95 µM (inactive) | IC50 [2]: > 95 µM | IC50 [3]: > 95 µM

Clc1nc(-c2ccccn2)nc2scc(-c3ccccc3)c12
IC50 (AlphaScreen, mean of runs): > 100 µM (inactive) | IC50 [1]: > 100 µM | IC50 (FP, mean of runs): > 95 µM (inactive) | IC50 [2]: > 95 µM | IC50 [3]: > 95 µM

CN(C)Cc1cc(C(F)(F)F)ccc1C(O)(c1ccccc1)c1ccccc1
IC50 (AlphaScreen, mean of runs): > 100 µM (inactive) | IC50 [1]: > 100 µM | IC50 (FP, mean of runs): > 95 µM (inactive) | IC50 [2]: > 95 µM | IC50 [3]: > 95 µM

COc1c2ccc(C(=O)NCc3cc(C(F)(F)F)cc(C(F)(F)F)c3)cc2nn1C
IC50 (AlphaScreen, mean of runs): > 100 µM (inactive) | IC50 [1]: > 100 µM | IC50 (FP, mean of runs): > 95 µM (inactive) | IC50 [2]: > 95 µM | IC50 [3]: > 95 µM

COc1cc2c(cc1OC)C(Nc1ccc(S(N)(=O)=O)cc1)=NC(C)(C)C2
IC50 (AlphaScreen, mean of runs): inactive | IC50 [1]: 51.8 µM | IC50 (FP, mean of runs): > 95 µM (inactive) | IC50 [2]: > 95 µM | IC50 [3]: > 95 µM

COC(=O)C[C@H]1c2cc(F)ccc2S(=O)(=O)N1C(C)C
IC50 (AlphaScreen, mean of runs): > 100 µM (inactive) | IC50 [1]: > 100 µM | IC50 (FP, mean of runs): > 95 µM (inactive) | IC50 [2]: > 95 µM | IC50 [3]: > 95 µM

NC1=NC[C@@H](Cc2ccc(O)cc2)N1CCCCC1CCCCC1
IC50 (AlphaScreen, mean of runs): > 100 µM (inactive) | IC50 [1]: > 100 µM | IC50 (FP, mean of runs): > 95 µM (inactive) | IC50 [2]: > 95 µM | IC50 [3]: > 95 µM

CN1C[C@H](CO)C=C2c3cccc4[nH]cc(c34)C[C@H]21
IC50 (AlphaScreen, mean of runs): 14.4 µM | IC50 [1]: 14.4 µM | IC50 (FP, mean of runs): > 95 µM (inactive) | IC50 [2]: > 95 µM | IC50 [3]: > 95 µM

FC(F)(F)c1cc(C(F)(F)F)c2ccc(Oc3ccccc3)nc2n1
IC50 (AlphaScreen, mean of runs): > 100 µM (inactive) | IC50 [1]: > 100 µM | IC50 (FP, mean of runs): > 95 µM (inactive) | IC50 [2]: > 95 µM | IC50 [3]: > 95 µM

COC/C=C/C1=CC2=CC(=O)C(C)(OC(=O)c3cnc4ccccc4n3)C(=O)C2=CN1Cc1ccc(OC)cc1 (stereo not given)
IC50 (AlphaScreen, mean of runs): inactive | IC50 [1]: 46.4 µM | IC50 (FP, mean of runs): > 95 µM (inactive) | IC50 [2]: > 95 µM | IC50 [3]: > 95 µM

CCOC(=O)c1c(=O)n(O)c2ccc(OC)cc2[n+]1[O-]
IC50 (AlphaScreen, mean of runs): > 100 µM (inactive) | IC50 [1]: > 100 µM | IC50 (FP, mean of runs): > 95 µM (inactive) | IC50 [2]: > 95 µM | IC50 [3]: > 95 µM

Cc1cc(C)cc(N(CCC(=O)O)S(=O)(=O)c2ccc3ccccc3c2)c1
IC50 (AlphaScreen, mean of runs): > 100 µM (inactive) | IC50 [1]: > 100 µM | IC50 (FP, mean of runs): > 95 µM (inactive) | IC50 [2]: > 95 µM | IC50 [3]: > 95 µM

CC(CN1CCCCC1)OC(=O)c1ccc(Cl)cc1Cl (stereo not given)
IC50 (AlphaScreen, mean of runs): > 100 µM (inactive) | IC50 [1]: > 100 µM | IC50 (FP, mean of runs): > 95 µM (inactive) | IC50 [2]: > 95 µM | IC50 [3]: > 95 µM

COc1ccc(-c2noc(CN(C(=O)c3ccc4c(c3)OCO4)C(C)C)n2)cc1
IC50 (AlphaScreen, mean of runs): > 100 µM (inactive) | IC50 [1]: > 100 µM | IC50 (FP, mean of runs): > 95 µM (inactive) | IC50 [2]: > 95 µM | IC50 [3]: > 95 µM

NC(=O)C1=C[C@H](c2ccc(Br)cc2)C[C@H](OCc2ccc(CO)cc2)O1
IC50 (AlphaScreen, mean of runs): > 100 µM (inactive) | IC50 [1]: > 100 µM | IC50 (FP, mean of runs): > 95 µM (inactive) | IC50 [2]: > 95 µM | IC50 [3]: > 95 µM

CN(C)/N=C/c1ccc(Sc2ccc([N+](=O)[O-])cc2[N+](=O)[O-])o1
IC50 (AlphaScreen, mean of runs): inactive | IC50 [1]: 85.7 µM | IC50 (FP, mean of runs): > 95 µM (inactive) | IC50 [2]: > 95 µM | IC50 [3]: > 95 µM

COC(=O)c1c(NC(=O)CN(c2ccccc2)S(C)(=O)=O)sc2c1CCCC2
IC50 (AlphaScreen, mean of runs): 15.5 µM | IC50 [1]: 15.5 µM | IC50 (FP, mean of runs): > 95 µM (inactive) | IC50 [2]: > 95 µM | IC50 [3]: > 95 µM
